Test [1] concerns the target T1, Dual specificity calcium/calmodulin-dependent 3',5'-cyclic nucleotide phosphodiesterase 1C (Homo sapiens, UniProt Q14123). Briefly: Inhibition of PDE1C (147 to 531 residues) (unknown origin) expressed in Escherichia coli BL21 at 1000 nM [3H]-cGMP as substrate measured for 15 mins by liquid scintillation counter method relative to control.
Test [2] concerns Rattus norvegicus. Briefly: Antifibrotic activity in bleomycin-induced Sprague-Dawley rat lung fibrosis model assessed as decrease in collagen I level at 150 mg/kg, po administered daily for 28 days by Western blot analysis. Format: functional, organism-based. The settings on record: time 28.0 day.
The test system of test [3] is Rattus norvegicus. The test can be described thus: Antifibrotic activity in bleomycin-induced Sprague-Dawley rat lung fibrosis model assessed as decrease in fibronectin level at 150 mg/kg, po administered daily for 28 days by Western blot analysis. It is filed as functional, organism-based. The settings on record: time 28.0 day. In general terms: Immunoblotting shows a protein as a band on a membrane.

For test [4], the system named is Rattus norvegicus. Briefly: Antifibrotic activity in bleomycin-induced Sprague-Dawley rat lung fibrosis model assessed as decrease in alpha-smooth muscle actin level at 150 mg/kg, po administered daily for 28 days by Western blot analysis. The settings on record: time 28.0 day. It is filed as functional, organism-based.
Test [5] addresses T1, Dual specificity calcium/calmodulin-dependent 3',5'-cyclic nucleotide phosphodiesterase 1C. The test can be described thus: Inhibition of PDE1C (147 to 531 residues) (unknown origin) expressed in Escherichia coli BL21 using [3H]-cGMP as substrate measured for 15 mins by liquid scintillation counter method.
A further test is filed under the species Homo sapiens. The test can be described thus: Selectivity ratio of IC50 for PDE4D (unknown origin) expressed in Escherichia coli BL21 to IC50 for PDE1C (147 to 531 residues) (unknown origin) expressed in Escherichia coli BL21.

As a reminder, the inhibition is the percentage by which the read-out fell short of the control. For orientation: IC50 means the midpoint of a concentration-inhibition curve.

Active and inactive are the calls of the source. The calls are words filed in the database; no cut-off is given here.

T1 sequence (Q14123 whole entry, the tested form may be a part): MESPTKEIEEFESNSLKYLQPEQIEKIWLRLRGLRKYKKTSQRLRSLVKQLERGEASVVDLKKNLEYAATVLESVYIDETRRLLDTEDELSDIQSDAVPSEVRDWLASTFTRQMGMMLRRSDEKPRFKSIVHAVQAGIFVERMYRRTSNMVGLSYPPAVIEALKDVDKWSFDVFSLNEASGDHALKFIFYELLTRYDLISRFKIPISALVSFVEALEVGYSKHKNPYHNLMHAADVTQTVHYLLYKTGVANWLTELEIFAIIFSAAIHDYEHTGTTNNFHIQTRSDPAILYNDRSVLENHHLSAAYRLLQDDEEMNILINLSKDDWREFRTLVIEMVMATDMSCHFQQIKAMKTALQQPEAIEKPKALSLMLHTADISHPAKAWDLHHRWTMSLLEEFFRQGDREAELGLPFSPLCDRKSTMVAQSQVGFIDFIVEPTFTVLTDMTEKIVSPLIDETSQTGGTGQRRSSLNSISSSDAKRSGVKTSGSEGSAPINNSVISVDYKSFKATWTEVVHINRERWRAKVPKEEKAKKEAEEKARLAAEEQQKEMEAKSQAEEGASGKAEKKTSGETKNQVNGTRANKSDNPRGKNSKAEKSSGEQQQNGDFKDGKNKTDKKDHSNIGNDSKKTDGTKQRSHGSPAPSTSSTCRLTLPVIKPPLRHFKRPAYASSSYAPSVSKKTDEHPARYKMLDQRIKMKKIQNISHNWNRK

For the molecule `COC(=O)C1=C(C)NC(C)=C(C(=O)OC)C1c1ccc(OC)c(OC)c1`, the inhibition in test [1] was determined as 43%. Take `COC(=O)C1=C(C)NC(C)=C(C(=O)OC)C1c1cccc(OC)c1`: in test [1], the inhibition was 7%. Same read-out and setting: as for `COC(=O)C1=C(C)NC(C)=C(C(=O)OC)C1c1ccc(F)c(F)c1`, the figure is 42%. `Cc1ccc(=O)n(-c2ccccc2)c1`: the outcome with Rattus norvegicus [2], with Rattus norvegicus [3] and in the test on Rattus norvegicus [4] was Active. Consider `CCOC(=O)C1=C(C)NC(C)=C(C(=O)OC)C1c1cccc([N+](=O)[O-])c1` (configuration not stated) [NITRENDIPINE], for which, in test [5], the half-inhibitory concentration (IC50) was found to be 1850 nM. On to `CC1=C(C(=O)OCc2cncs2)C(c2ccc3c(cnn3C)c2)C(C(=O)OCc2cncs2)=C(C)N1`, for which the IC50 in test [5] is 189 nM.

`COC(=O)C1=C(C)NC(C)=C(C(=O)OC)C1c1ccccc1[N+](=O)[O-]` [NIFEDIPINE]: in test [5], the IC50 is over 10000 nM. For `COC(=O)C1=C(C)NC(C)=C(C(=O)OC)C1c1cccc(C#N)c1`, in test [1], the inhibition turned out to be 25%.

For the molecule `COCCOC(=O)C1=C(C)NC(C)=C(C(=O)OC(C)C)C1c1cccc([N+](=O)[O-])c1` (configuration not stated) [NIMODIPINE], the IC50 in test [5] is 1240 nM. Besides, the Ratio IC50 in the test listed under Homo sapiens is 5.8.

The record behind these values is ChEMBL document CHEMBL5154941, “Structural Modifications of Nimodipine Lead to Novel PDE1 Inhibitors with Anti-pulmonary Fibrosis Effects” (J Med Chem, 2022).
